According to PubChem BioAssay (NCI):
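Cells were grown in 96-well plates and exposed to each compound for 48 hours at five concentrations; endpoints were interpolated linearly between bracketing concentrations, or set to the highest concentration if not reached. The concentration for full growth arrest is given as TGI.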 Where a SMILES comes first, the peptide text is derived from it. [ ]: non-standard residue; d: D form. The star is where a group is joined. ξ: configuration not given here. Propanoyl(3-(4-MeO-Ph)) = COc1ccc(CCC(=O)*)cc1; Thr(3ξ) = CC(O)[C@H](N)C(=O)O; dNMeL = CN[C@H](CC(C)C)C(=O)O; Boc = CC(C)(C)OC(=O)*; OBn = c1ccc(CO*)cc1; ξLac = CC(O)C(=O)O

Experiments:
Assay in all cases: DTP human tumour cell line panel, 48 h
HT29 colon = system: HT29 colon
CAKI-1 renal = system: CAKI-1 renal
NCI-H226 lung = system: NCI-H226 lung
ACHN renal = system: ACHN renal
HOP-92 NSCLC = system: HOP-92 NSCLC
KM12 colon = system: KM12 colon
PC-3 prostate = system: PC-3 prostate
SK-MEL-28 melanoma = system: SK-MEL-28 melanoma
MDA-MB-231 breast = system: MDA-MB-231 breast
DU-145 prostate = system: DU-145 prostate

| Compound | TGI (HT29 colon) | TGI (CAKI-1 renal) | TGI (NCI-H226 lung) | TGI (ACHN renal) | TGI (HOP-92 NSCLC) | TGI (KM12 colon) | TGI (PC-3 prostate) | TGI (SK-MEL-28 melanoma) | TGI (MDA-MB-231 breast) | TGI (DU-145 prostate) |
| --- | --- | --- | --- | --- | --- | --- | --- | --- | --- | --- |
| O=c1c(-c2ccccc2Cl)coc2cc(F)ccc12 | > 100 µM | > 100 µM | > 100 µM | > 100 µM | 87.1 µM | 71.8 µM | > 100 µM | > 100 µM | 67.3 µM | 83.9 µM |
| O=C(/C=C\Nc1ccccc1O)C(Cl)(Cl)Cl | > 100 µM | > 100 µM | > 100 µM | > 100 µM | > 100 µM | > 100 µM | > 100 µM | > 100 µM | > 100 µM | > 100 µM |
| Cc1cc(O)c(/C=N/c2nc(-c3cccc([N+](=O)[O-])c3)cs2)c(=O)o1 | > 100 µM | > 100 µM | > 100 µM | > 100 µM | > 100 µM | > 100 µM | > 100 µM | > 100 µM | > 100 µM | > 100 µM |
| COC1(OC)C2(Cl)C(Cl)=C(Cl)C1(Cl)C1COCC12 (stereo not given) | > 100 µM | > 100 µM | > 100 µM | > 100 µM | > 100 µM | > 100 µM | > 100 µM | > 55.4 µM | > 100 µM | > 100 µM |
| CC(=O)N1N=C(N)CC1=O | > 100 µM | > 100 µM | > 100 µM | > 100 µM | > 100 µM | > 100 µM | > 100 µM | > 100 µM | > 100 µM | > 100 µM |
| C/C(=N\O)c1cccc(Nc2nc3ccccc3c3occc23)c1 | 15.6 µM | 34.2 µM | 16.5 µM | 22.8 µM | 20.2 µM | 27.3 µM | 25.8 µM | 29.2 µM | 26.4 µM | 27.8 µM |
| CCOCC(NC(=O)C(CC(C)C)NC(=O)OC(C)(C)C)C(N)=O (stereo not drawn) (Boc-Leu-Ser(Et)-NH2; configuration not given here) | > 100 µM | > 100 µM | > 100 µM | > 100 µM | > 100 µM | > 100 µM | > 100 µM | 2.84 µM | > 100 µM | > 100 µM |
| O=C(N/N=C\c1ccc([N+](=O)[O-])cc1)Nc1cccc2ccccc12 | > 100 µM | 33.1 µM | 61 µM | > 100 µM | 16.7 µM | > 100 µM | > 71.4 µM | > 100 µM | 33.7 µM | > 100 µM |
| Nn1c(SCC(=O)NCc2ccccc2)nc2ccccc2c1=O | > 100 µM | > 100 µM | > 100 µM | > 100 µM | > 100 µM | > 100 µM | > 100 µM | > 100 µM | > 100 µM | > 100 µM |
| CC1(C)C(=O)C2(OS(=O)(=O)C(F)(F)F)CCC1C2 (stereo not given) | > 100 µM | > 100 µM | > 100 µM | > 100 µM | > 100 µM | > 100 µM | > 100 µM | > 100 µM | > 100 µM | > 100 µM |
| CC12CC3(O)OC(O1)C1(COC(=O)c4ccccc4)C3CC21OC1OC(CO)C(O)C(O)C1O (stereo not given) | > 100 µM | > 100 µM | > 100 µM | > 100 µM | > 100 µM | > 100 µM | > 100 µM | > 100 µM | > 100 µM | > 100 µM |
| Nc1nc(N)c2nnn(C[C@H]3CC[C@@H](CO)C3)c2n1 | > 100 µM | > 100 µM | > 100 µM | > 100 µM | > 100 µM | > 100 µM | > 100 µM | > 100 µM | > 100 µM | > 100 µM |
| CCOC(=O)C(C)(C)/C=C\C(Cl)=C(Cl)Cl | > 100 µM | > 100 µM | > 100 µM | > 100 µM | > 100 µM | > 100 µM | > 100 µM | > 100 µM | > 100 µM | > 100 µM |
| CCOP(=O)(OCC)/C(C#N)=C/c1cccn1N(C)C | > 100 µM | > 100 µM | > 100 µM | > 100 µM | > 100 µM | > 100 µM | > 100 µM | > 100 µM | > 100 µM | > 100 µM |
| COc1cc(C(=O)Nc2c3ccccc3nc3ccccc23)cc(OC)c1OC | > 100 µM | > 67 µM | > 100 µM | > 100 µM | > 100 µM | > 100 µM | > 100 µM | > 100 µM | > 100 µM | > 100 µM |
| O=c1[nH]c(Nc2cccc(Br)c2)nc2nc[nH]c12 | > 100 µM | > 100 µM | > 100 µM | > 100 µM | > 100 µM | > 100 µM | > 100 µM | > 100 µM | > 100 µM | > 100 µM |

| Compound | TGI (HT29 colon) | TGI (CAKI-1 renal) | TGI (NCI-H226 lung) | TGI (ACHN renal) | TGI (HOP-92 NSCLC) | TGI (KM12 colon) | TGI (PC-3 prostate) | TGI (SK-MEL-28 melanoma) | TGI (MDA-MB-231 breast) | TGI (DU-145 prostate) |
| --- | --- | --- | --- | --- | --- | --- | --- | --- | --- | --- |
| Cc1ccc2cccc3c2c1CC1(C3=O)S(=O)(=O)OCCOS1(=O)=O | > 100 µM | > 100 µM | > 100 µM | > 100 µM | > 100 µM | > 100 µM | > 100 µM | > 100 µM | > 100 µM | > 100 µM |
| O=C(/C=C/c1cccs1)c1cccc(C(=O)/C=C/c2cccs2)n1 | > 34.1 µM | > 100 µM | > 100 µM | > 100 µM | > 100 µM | > 66.3 µM | > 100 µM | > 100 µM | > 100 µM | > 100 µM |
| CCCC#CC(O)(C(=O)OC1CCN(C)CC1)C1CCCCC1 (stereo not given) | > 100 µM | > 100 µM | > 100 µM | > 100 µM | > 100 µM | > 100 µM | > 100 µM | > 100 µM | > 100 µM | > 100 µM |
| O=C1OC(C2OC(=O)c3cc(O)c(O)c(O)c3-c3c(O)c(O)c4oc(=O)c5c(c(O)c(O)c6oc(=O)c3c4c65)-c3c(cc(O)c(O)c3O)C(=O)OCC2O)C2OC(=O)c3c(c(O)c(O)c(O)c3[C@H]2O)-c2c1cc(O)c(O)c2O (stereo not given in full) | 31.6 µM | 22.4 µM | 44.2 µM | 80.3 µM | 87.1 µM | 63 µM | > 100 µM | > 100 µM | 33.7 µM | > 100 µM |
| O=C(CCc1ccccc1CO)NCCc1ccccc1 | > 100 µM | > 100 µM | > 100 µM | > 100 µM | > 100 µM | > 100 µM | > 100 µM | > 100 µM | > 100 µM | > 100 µM |
| COc1ccc(C(C#N)NCCCCCCNC(C#N)c2ccc(OC)cc2)cc1 (stereo not given) | > 100 µM | > 100 µM | > 100 µM | > 100 µM | > 100 µM | > 100 µM | > 100 µM | > 100 µM | > 100 µM | > 100 µM |
| CC1=C(C(=O)NCC(C)O)CC(C(=O)NCC(C)O)=C(C)N1 (stereo not given) | > 100 µM | > 100 µM | > 100 µM | > 100 µM | > 100 µM | > 100 µM | > 100 µM | > 100 µM | > 100 µM | > 100 µM |
| O[C@H]1[C@H](O)[C@H](O)CN2CCC[C@@H](O)[C@H]12 | > 100 µM | > 100 µM | > 100 µM | > 100 µM | > 100 µM | > 100 µM | > 100 µM | > 100 µM | > 100 µM | > 100 µM |
| NCCCc1c(-c2ccccc2)nc(N)[nH]c1=O | > 100 µM | > 100 µM | > 100 µM | > 100 µM | > 100 µM | > 100 µM | > 100 µM | > 100 µM | > 100 µM | > 100 µM |
| COc1ccc(CCC(=O)OC(C)[C@H](NC(=O)[C@@H](CC(C)C)N(C)C(=O)[C@@H]2CCCN2C(=O)C(C)O)C(=O)OCc2ccccc2)cc1 (stereo not given in full) (H-[ξLac]P[dNMeL][Thr(3ξ)](Propanoyl(3-(4-MeO-Ph)))-OBn) | > 100 µM | > 100 µM | 98.3 µM | > 100 µM | 41.6 µM | 79.4 µM | > 100 µM | 32.9 µM | 46.5 µM | > 100 µM |
| Cc1ccc(/C=N/Nc2nncc3ccccc23)s1 | > 100 µM | > 100 µM | > 100 µM | > 100 µM | > 100 µM | > 100 µM | > 100 µM | > 100 µM | > 82 µM | > 31.6 µM |
| CC(=O)O[C@H]1CC[C@@]2(C)C(=CC[C@@H]3[C@@H]2CC[C@]2(C)c4c(cc(C#N)c(=N)n4C(C)=O)C[C@@H]32)C1 | 43.5 µM | 95.8 µM | 72.8 µM | 47.8 µM | 59.8 µM | 32.8 µM | 54.6 µM | 37.3 µM | 77.9 µM | 79.3 µM |
| O=C1CC(c2ccc[nH]2)=NN1c1ccccc1 | > 100 µM | > 100 µM | > 100 µM | > 100 µM | > 100 µM | > 100 µM | > 100 µM | > 100 µM | > 100 µM | > 100 µM |
| O=c1[nH]c2ccc(CC(=S)N3CCN(c4ccccc4)CC3)cc2o1 | > 100 µM | > 100 µM | > 100 µM | > 100 µM | > 100 µM | > 100 µM | > 100 µM | > 100 µM | > 100 µM | > 100 µM |
| Cc1ccc(/C=N/NC2=NCCN2)s1 | > 100 µM | > 100 µM | > 100 µM | > 100 µM | > 100 µM | > 100 µM | > 100 µM | > 100 µM | > 100 µM | > 100 µM |
